Results from ChEMBL document CHEMBL1201862, “PubChem BioAssay data set” (2004).
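A five-concentration, 48-hour dose response in 96-well plates underlies each endpoint, interpolated linearly between surrounding concentrations. GI50 is the concentration that inhibits growth by half.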 Calls of active or inactive are those of the source. Cut-off read from the data, not from the text of the source: active = GI50 up to about 1.1 µM and inactive = higher.

How the values were obtained:
Assay in all cases: NCI tumour cell line growth inhibition, 48 h
786-0 = test system: 786-0
A549 = test system: A549
SF-295 = test system: SF-295
SNB-75 = test system: SNB-75
Malme-3M = test system: Malme-3M
NCI-H522 = test system: NCI-H522
UACC-257 = test system: UACC-257
OVCAR-4 = test system: OVCAR-4
TK-10 = test system: TK-10
SK-MEL-28 = test system: SK-MEL-28
HOP-62 = test system: HOP-62
K562 = test system: K562
ACHN = test system: ACHN
SK-MEL-2 = test system: SK-MEL-2
HOP-92 = test system: HOP-92
RPMI-8226 = test system: RPMI-8226

Measured: GI50

COC(=O)C(CCC1(C)OCCO1)=[N+]=[N-]
inactive: 786-0 > 100 µM | A549 > 100 µM | SF-295 > 100 µM | SNB-75 > 100 µM | Malme-3M > 100 µM | NCI-H522 > 100 µM | UACC-257 > 100 µM | OVCAR-4 > 100 µM | TK-10 > 100 µM | SK-MEL-28 > 100 µM | HOP-62 > 100 µM | K562 > 100 µM | ACHN > 100 µM | SK-MEL-2 > 100 µM

COc1ccc(C(O)c2cc(OC)c(OC)c(OC)c2)cc1 (stereo not drawn)
inactive: HOP-92 27.3 µM | 786-0 46.8 µM | RPMI-8226 19.9 µM | A549 17.1 µM | SF-295 6.44 µM | Malme-3M 23.7 µM | NCI-H522 11.6 µM | UACC-257 38.2 µM | OVCAR-4 31.8 µM | TK-10 31.3 µM | SK-MEL-28 72.1 µM | HOP-62 26.3 µM | K562 3.78 µM | ACHN 69.8 µM

CCOC(=O)C(C)c1cc(C2(C)OCCO2)c(C)o1 (stereo not drawn)
inactive: HOP-92 8.63 µM | 786-0 > 100 µM | RPMI-8226 > 100 µM | A549 > 100 µM | SF-295 > 100 µM | SNB-75 88.9 µM | Malme-3M > 100 µM | OVCAR-4 > 100 µM | TK-10 > 100 µM | HOP-62 > 100 µM | K562 > 100 µM | ACHN > 100 µM | SK-MEL-2 > 100 µM

CCOC(=O)C1=C(C)N(NC(=O)Nc2ccccc2)C(=O)C1=P(c1ccccc1)(c1ccccc1)c1ccccc1
inactive: HOP-92 31 µM | 786-0 63 µM | RPMI-8226 24.2 µM | A549 48.9 µM | SF-295 48.4 µM | SNB-75 38 µM | Malme-3M 36.2 µM | NCI-H522 19.4 µM | UACC-257 45.7 µM | OVCAR-4 35.2 µM | TK-10 56.5 µM | HOP-62 > 100 µM | K562 26.6 µM | ACHN 36.6 µM | SK-MEL-2 22.4 µM

Oc1ccc(Br)cc1/C=N/c1ccc(/N=C/c2cc(Br)ccc2O)cc1
inactive: HOP-92 > 100 µM | 786-0 > 100 µM | RPMI-8226 > 100 µM | A549 > 100 µM | SF-295 > 100 µM | SNB-75 > 100 µM | Malme-3M > 100 µM | UACC-257 > 100 µM | OVCAR-4 > 100 µM | TK-10 > 100 µM | K562 > 100 µM | ACHN > 100 µM | SK-MEL-2 > 100 µM

COc1ccccc1C1C(Cl)C(=O)N1NC(=O)Cc1ccccc1 (stereo not drawn)
inactive: 786-0 > 100 µM | RPMI-8226 46.5 µM | A549 > 100 µM | SF-295 > 100 µM | SNB-75 31.7 µM | Malme-3M 53.2 µM | NCI-H522 48.3 µM | UACC-257 > 100 µM | OVCAR-4 75.7 µM | TK-10 > 100 µM | SK-MEL-28 > 100 µM | HOP-62 82.4 µM | K562 35.2 µM | ACHN > 100 µM | SK-MEL-2 53.7 µM

CCCCCCCCCC(=O)CC(=O)c1c(O)cccc1O
inactive: 786-0 18.7 µM | RPMI-8226 25.6 µM | A549 28.8 µM | SF-295 34.1 µM | SNB-75 28 µM | Malme-3M 35.2 µM | NCI-H522 27.8 µM | UACC-257 38.2 µM | OVCAR-4 49.7 µM | TK-10 41.8 µM | SK-MEL-28 62.7 µM | HOP-62 85.7 µM | K562 27.7 µM | ACHN 27.4 µM | SK-MEL-2 30.6 µM

COc1nc2c(nc(N)n2C2OC(CO)C(O)C(O)C2O)c(=O)n1C (stereo not drawn)
inactive: HOP-92 > 100 µM | 786-0 > 100 µM | A549 > 100 µM | SF-295 > 100 µM | SNB-75 > 100 µM | Malme-3M > 100 µM | NCI-H522 > 100 µM | UACC-257 > 100 µM | OVCAR-4 > 100 µM | TK-10 > 100 µM | SK-MEL-28 > 100 µM | HOP-62 > 100 µM | K562 > 100 µM | ACHN > 100 µM

CCOC(=O)N(c1ccccc1)N(CC)C(=O)/C(C)=N/Nc1ccc([N+](=O)[O-])cc1
inactive: HOP-92 15.5 µM | 786-0 17.1 µM | RPMI-8226 16.8 µM | A549 16.7 µM | SF-295 16.6 µM | SNB-75 18.1 µM | Malme-3M 17.6 µM | NCI-H522 15.3 µM | UACC-257 15 µM | OVCAR-4 19.7 µM | SK-MEL-28 17.3 µM | HOP-62 16.1 µM | K562 14.7 µM | ACHN 17.7 µM | SK-MEL-2 16 µM

c1cc(C2O[C@H]3CCCN3[C@@H]2c2ccncc2)ccn1 (stereo partly drawn)
inactive: 786-0 > 100 µM | RPMI-8226 > 100 µM | A549 > 100 µM | SF-295 > 100 µM | SNB-75 > 100 µM | Malme-3M > 100 µM | NCI-H522 > 100 µM | UACC-257 > 100 µM | OVCAR-4 > 100 µM | TK-10 > 100 µM | SK-MEL-28 > 100 µM | HOP-62 > 100 µM | K562 > 100 µM | ACHN > 100 µM | SK-MEL-2 > 100 µM

C/C(=N\NC(N)=S)c1ccc(/C(C)=N/NC(N)=S)cc1
inactive: HOP-92 > 100 µM | 786-0 > 100 µM | RPMI-8226 > 100 µM | A549 > 100 µM | SF-295 > 100 µM | SNB-75 > 100 µM | Malme-3M > 100 µM | NCI-H522 > 100 µM | UACC-257 > 100 µM | TK-10 > 100 µM | SK-MEL-28 > 100 µM | HOP-62 > 100 µM | K562 > 100 µM | ACHN > 100 µM

Oc1c(-c2ccccc2)nc2ccccn12
inactive: 786-0 > 100 µM | A549 > 100 µM | SF-295 > 100 µM | SNB-75 > 100 µM | Malme-3M > 100 µM | NCI-H522 > 100 µM | UACC-257 > 100 µM | OVCAR-4 > 100 µM | TK-10 > 100 µM | SK-MEL-28 > 100 µM | HOP-62 > 100 µM | K562 > 100 µM | ACHN > 100 µM | SK-MEL-2 > 100 µM

CCOC(=O)NC(=O)c1cn(CCCCCCCCCCC(=O)NCCCN2CCN(CCCNC(=O)CCCCCCCCCCn3cc(C(=O)NC(=O)OCC)c(=O)[nH]c3=O)CC2)c(=O)[nH]c1=O
inactive: HOP-92 > 100 µM | 786-0 > 100 µM | A549 > 100 µM | SF-295 > 100 µM | SNB-75 > 100 µM | Malme-3M > 100 µM | NCI-H522 > 10 µM | UACC-257 > 100 µM | TK-10 > 100 µM | SK-MEL-28 > 100 µM | HOP-62 > 10 µM | K562 > 100 µM | ACHN > 100 µM | SK-MEL-2 > 100 µM

c1ccc(-c2csc3ncn4cnnc4c23)cc1
inactive: HOP-92 24.6 µM | 786-0 55.7 µM | RPMI-8226 59.6 µM | A549 > 100 µM | SF-295 > 100 µM | SNB-75 22.3 µM | NCI-H522 51.1 µM | OVCAR-4 75.5 µM | TK-10 84.3 µM | SK-MEL-28 > 100 µM | K562 > 100 µM | ACHN 33.6 µM | SK-MEL-2 24.8 µM
